For this assay, the target named is PRMT5/MEP50 complex (Homo sapiens (Human), UniProt O14744). Kind of assay: PRMT5:MEP50 FlashPlate Assay (histone H4 peptide substrate, plus and minus MTA). Type of assay: biochemical. The procedure: The PRMT5 inhibitory activity of compounds of the present invention was determined using either a PRMT5:MEP50 FlashPlate Assay (Reaction Biology Corporation) or a PRMT5:MEP50 HotSpot Assay (Reaction Biology Corporation).
1. PRMT5:MEP50 FlashPlate Assay

The mark [1] stands for this setting: IC50 + 2 μM MTA (nM), in the presence of 2 μM MTA.
Where [2] appears, read: in the absence of MTA, read-out: IC50.

Like-named read-outs stand apart in the source and are kept apart here.

Sequence of PRMT5/MEP50 complex (O14744 2-637): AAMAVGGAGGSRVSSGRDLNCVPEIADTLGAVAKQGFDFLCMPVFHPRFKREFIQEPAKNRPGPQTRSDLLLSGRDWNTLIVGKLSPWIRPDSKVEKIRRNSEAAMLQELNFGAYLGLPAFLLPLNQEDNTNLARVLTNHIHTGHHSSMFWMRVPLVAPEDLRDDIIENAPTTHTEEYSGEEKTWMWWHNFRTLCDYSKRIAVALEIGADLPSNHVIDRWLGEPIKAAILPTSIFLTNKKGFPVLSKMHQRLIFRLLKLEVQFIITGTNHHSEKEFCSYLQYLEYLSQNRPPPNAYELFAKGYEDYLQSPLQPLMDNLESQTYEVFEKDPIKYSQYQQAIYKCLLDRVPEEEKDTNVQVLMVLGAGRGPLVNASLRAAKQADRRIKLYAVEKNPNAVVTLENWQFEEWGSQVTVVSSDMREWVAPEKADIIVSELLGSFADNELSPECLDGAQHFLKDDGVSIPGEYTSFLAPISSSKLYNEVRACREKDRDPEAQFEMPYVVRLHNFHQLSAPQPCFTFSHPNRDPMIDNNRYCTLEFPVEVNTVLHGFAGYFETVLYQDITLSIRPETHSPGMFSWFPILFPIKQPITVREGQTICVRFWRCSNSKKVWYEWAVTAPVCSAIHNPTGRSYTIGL
Sequence of PRMT5/MEP50 complex (Q9BQA1 2-342 partner): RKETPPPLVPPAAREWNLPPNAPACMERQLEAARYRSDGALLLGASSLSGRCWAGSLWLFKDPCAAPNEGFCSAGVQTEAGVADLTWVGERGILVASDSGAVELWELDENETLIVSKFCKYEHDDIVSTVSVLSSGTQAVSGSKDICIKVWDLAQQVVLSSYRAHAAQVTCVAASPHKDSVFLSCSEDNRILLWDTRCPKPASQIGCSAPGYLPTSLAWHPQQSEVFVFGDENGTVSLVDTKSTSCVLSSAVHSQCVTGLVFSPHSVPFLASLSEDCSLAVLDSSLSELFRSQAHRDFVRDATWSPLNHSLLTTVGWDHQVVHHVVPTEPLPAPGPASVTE

Consider `NCc1n[nH]c(=O)c2ccc(-c3cncc(OC(F)F)c3)cc12` [Example 3-51, 4-(aminomethyl)-6-(5-(difluoromethoxy)pyridin-3-yl)phthalazin-1(2H)-one], for which the IC50 runs as follows: under setting [1], 500 nM; under setting [2], 11100 nM.

Take `NCc1n[nH]c(=O)c2ccc(-c3cncn4cccc34)cc12` [Example 4-13, 4-(aminomethyl)-6-(pyrrolo[1,2-c]pyrimidin-4-yl)phthalazin-1(2H)-one]: the IC50 reads like this: under setting [1], 210 nM; under setting [2], 2560 nM.

On to `Cc1c(Cl)cncc1-c1ccc2c(=O)[nH]nc(CN)c2c1` [Example 3-56, 4-(aminomethyl)-6-(5-chloro-4-methylpyridin-3-yl)phthalazin-1(2H)-one], for which the IC50 by setting is: under setting [1], 550 nM; under setting [2], 11500 nM.

In the case of `CCCc1cncc(-c2ccc3c(=O)[nH]nc(CN)c3c2)c1` [Example 3-34, 4-(aminomethyl)-6-(5-propylpyridin-3-yl)phthalazin-1(2H)-one], the IC50 reads like this: under setting [1], 73 nM; under setting [2], 2040 nM.

Consider `CC(C)c1c[nH]c2ncc(-c3ccc4c(=O)[nH]nc(CN)c4c3)cc12` [Example 3-61, 4-(aminomethyl)-6-(3-isopropyl-1H-pyrrolo[2,3-b]pyridin-5-yl)phthalazin-1(2H)-one], for which the IC50 reads like this: under setting [1], 3.4 nM; under setting [2], 80 nM.

Take `NCc1n[nH]c(=O)c2ccc(-n3ccnc3)cc12` [Example 6-1, 4-(aminomethyl)-6-imidazol-1-yl-2H-phthalazin-1-one]: the IC50 was 5800 nM under setting [1] and > 100000 nM under setting [2].

On to `NCc1n[nH]c(=O)c2ccc(-c3ccc(C(F)(F)F)nc3)cc12` [Example 3-8, 4-(aminomethyl)-6-(6-(trifluoromethyl)pyridin-3-yl)phthalazin-1(2H)-one], for which the IC50 under setting [1] is > 1e+06 nM and the IC50 under setting [2] was > 1e+06 nM.

Regarding `NCc1n[nH]c(=O)c2ccc(-c3cncc(OCC4CC4)c3)cc12` [Example 3-53, 4-(aminomethyl)-6-(5-(cyclopropylmethoxy)pyridin-3-yl)phthalazin-1(2H)-one], the IC50 reads like this: under setting [1], 28 nM; under setting [2], 1350 nM.

On to `COc1cncc(-c2ccc3c(=O)[nH]nc(CN)c3c2)c1` [Example 3-45, 4-(aminomethyl)-6-(5-methoxypyridin-3-yl)phthalazin-1(2H)-one], for which the IC50 runs as follows: under setting [1], 370 nM; under setting [2], 6810 nM.

For the molecule `NCc1n[nH]c(=O)c2ccc(-c3cncc(Oc4cccnc4)c3)cc12` [Example 4-62, 4-(aminomethyl)-6-(5-(pyridin-3-yloxy)pyridin-3-yl)phthalazin-1(2H)-one], the IC50 runs as follows: under setting [1], 120 nM; under setting [2], 2230 nM.

For `NCc1n[nH]c(=O)c2ccc(-c3cnc4ccc(-c5ccccc5)cn34)cc12` [Example 4-39, 4-(aminomethyl)-6-(6-phenylimidazo[1,2-a]pyridin-3-yl)phthalazin-1(2H)-one], the IC50 by setting is: under setting [1], 1.7 nM; under setting [2], 109 nM.

For the molecule `CC(C)n1cc(-c2ccc3c(=O)[nH]nc(CN)c3c2)cn1` [Example 3-17, 4-(aminomethyl)-6-(1-isopropyl-1H-pyrazol-4-yl)phthalazin-1(2H)-one], the IC50 worked out at 770 nM under setting [1] and 15100 nM under setting [2].

Take `NCc1n[nH]c(=O)c2ccc(-c3cnc4c(F)cc(Cl)cn34)cc12` [Example 4-27, 4-(aminomethyl)-6-(6-chloro-8-fluoroimidazo[1,2-a]pyridin-3-yl)phthalazin-1(2H)-one]: the IC50 is 1300 nM under setting [1] and > 100000 nM under setting [2].

For `N#Cc1ccc2ncc(-c3ccc4c(=O)[nH]nc(CN)c4c3)n2c1` [Example 4-15, 3-(4-(aminomethyl)-1-oxo-1,2-dihydrophthalazin-6-yl)imidazo[1,2-a]pyridine-6-carbonitrile], the IC50 reads like this: under setting [1], 260 nM; under setting [2], 3870 nM.

With `Cc1ccc(-c2c(-c3ccc4c(=O)[nH]nc(CN)c4c3)cnn2C)cn1` [Example 4-99, 4-(aminomethyl)-6-(1-methyl-5-(6-methylpyridin-3-yl)-1H-pyrazol-4-yl)phthalazin-1(2H)-one], the IC50 under setting [1] is 15 nM and the IC50 under setting [2] worked out at 547 nM.

Consider `NCc1n[nH]c(=O)c2ccc(C3CCCC3)cc12` [Example 5-1, 4-(aminomethyl)-6-cyclopentylphthalazin-1(2H)-one], for which the IC50 is, setting by setting: under setting [1], 72000 nM; under setting [2], > 100000 nM.

As to `NCc1n[nH]c(=O)c2ccc(-c3cncc(Sc4ccc(Cl)cc4)c3)cc12` [Example 4-57, 4-(aminomethyl)-6-(5-((4-chlorophenyl)thio)pyridin-3-yl)phthalazin-1(2H)-one], the IC50 by setting is: under setting [1], 11 nM; under setting [2], 85 nM.

On to `N#Cc1cc(Cl)ccc1-c1cncc(-c2ccc3c(=O)[nH]nc(CN)c3c2)c1` [Example 8-4, 2-(5-(4-(aminomethyl)-1-oxo-1,2-dihydrophthalazin-6-yl)pyridin-3-yl)-5-chlorobenzonitrile], for which the IC50 turned out to be 3.1 nM under setting [1] and 313 nM under setting [2].

For the molecule `NCc1n[nH]c(=O)c2ccc(-c3cnc4cc(F)ccn34)cc12` [Example 4-29, 4-(aminomethyl)-6-(7-fluoroimidazo[1,2-a]pyridin-3-yl)phthalazin-1(2H)-one], the IC50 worked out at 190 nM under setting [1] and 4030 nM under setting [2].

Take `Cc1cc(-c2ccc3c(=O)[nH]nc(CN)c3c2)cnc1C` [Example 3-4, 4-(aminomethyl)-6-(5,6-dimethylpyridin-3-yl)phthalazin-1(2H)-one]: the IC50 reads like this: under setting [1], 1400 nM; under setting [2], 38300 nM.

In the case of `NCc1n[nH]c(=O)c2cc(-c3ccccn3)ccc12` [Example 1-4, 4-(aminomethyl)-7-(pyridin-2-yl)phthalazin-1(2H)-one], the IC50 was 39000 nM under setting [1] and > 100000 nM under setting [2].

For `Cc1cn2c(-c3ccc4c(=O)[nH]nc(CN)c4c3)cnc2cn1` [Example 4-24, 4-(aminomethyl)-6-(6-methylimidazo[1,2-a]pyrazin-3-yl)phthalazin-1(2H)-one], the IC50 reads like this: under setting [1], 840 nM; under setting [2], 13400 nM.

Take `N#Cc1c[nH]c2ncc(-c3ccc4c(=O)[nH]nc(CN)c4c3)cc12` [Example 4-41, 5-(4-(aminomethyl)-1-oxo-1,2-dihydrophthalazin-6-yl)-1H-pyrrolo[2,3-b]pyridine-3-carbonitrile]: the IC50 under setting [1] came out at 56 nM and the IC50 under setting [2] is 4810 nM.

`CCCn1cc(-c2ccc3c(=O)[nH]nc(CN)c3c2)cn1` [Example 3-23, 4-(aminomethyl)-6-(1-propyl-1H-pyrazol-4-yl)phthalazin-1(2H)-one]: the IC50 amounted to 230 nM under setting [1] and 6430 nM under setting [2].

Take `COc1c(-c2ccc3c(=O)[nH]nc(CN)c3c2)cnn1C` [Example 4-48, 4-(aminomethyl)-6-(5-methoxy-1-methyl-1H-pyrazol-4-yl)phthalazin-1(2H)-one]: the IC50 reads like this: under setting [1], 22 nM; under setting [2], 750 nM.

As for `Cc1ccncc1-c1ccc2c(=O)[nH]nc(CN)c2c1` [Example 3-19, 4-(aminomethyl)-6-(4-methylpyridin-3-yl)phthalazin-1(2H)-one], the IC50 is, setting by setting: under setting [1], 180 nM; under setting [2], 6360 nM.

Turning to `NCc1n[nH]c(=O)c2ccc(-c3cncc(Sc4ccccc4)c3)cc12` [Example 4-55, 4-(aminomethyl)-6-(5-(phenylthio)pyridin-3-yl)phthalazin-1(2H)-one], the IC50 runs as follows: under setting [1], 1.2 nM; under setting [2], 30 nM.

Regarding `NCc1n[nH]c(=O)c2ccc(-c3cnc4[nH]cc(C(F)(F)F)c4c3)cc12` [Example 4-43, 4-(aminomethyl)-6-(3-(trifluoromethyl)-1H-pyrrolo[2,3-b]pyridin-5-yl)phthalazin-1(2H)-one], the IC50 under setting [1] came out at 32 nM and the IC50 under setting [2] was determined as 1520 nM.

As for `Cn1ncc(-c2ccc3c(=O)[nH]nc(CN)c3c2)c1-c1ccc(F)cc1` [Example 4-95, 4-(aminomethyl)-6-(5-(4-fluorophenyl)-1-methyl-1H-pyrazol-4-yl)phthalazin-1(2H)-one], the IC50 is 4.9 nM under setting [1] and 228 nM under setting [2].

Take `COc1ccc(Oc2cncc(-c3ccc4c(=O)[nH]nc(CN)c4c3)c2)cc1` [Example 4-77, 4-(aminomethyl)-6-(5-(4-methoxyphenoxy)pyridin-3-yl)phthalazin-1(2H)-one]: the IC50 reads like this: under setting [1], 1.1 nM; under setting [2], 96 nM.

Regarding `NCc1n[nH]c(=O)c2ccc(-c3cnsc3-c3ccccc3)cc12` [Example 4-54, 4-(aminomethyl)-6-(5-phenylisothiazol-4-yl)phthalazin-1(2H)-one], the IC50 runs as follows: under setting [1], 77 nM; under setting [2], 1550 nM.

On to `NCc1n[nH]c(=O)c2ccc(-c3cncc(CO)c3)cc12` [Example 3-47, 4-(aminomethyl)-6-(5-(hydroxymethyl)pyridin-3-yl)phthalazin-1(2H)-one], for which the IC50 under setting [1] is 56 nM and the IC50 under setting [2] was found to be 2950 nM.

On to `Cc1c(-c2ccc3c(=O)[nH]nc(CN)c3c2)cncc1C1CC1` [Example 4-5, 4-(aminomethyl)-6-(5-cyclopropyl-4-methylpyridin-3-yl)phthalazin-1(2H)-one], for which the IC50 runs as follows: under setting [1], 150 nM; under setting [2], 1730 nM.

On to `NCc1n[nH]c(=O)c2ccc(-c3cnsc3)cc12` [Example 4-2, 4-(aminomethyl)-6-(isothiazol-4-yl)phthalazin-1(2H)-one], for which the IC50 under setting [1] is 490 nM and the IC50 under setting [2] came out at 13800 nM.

As for `Cc1ccn2c(-c3ccc4c(=O)[nH]nc(CN)c4c3)cnc2c1` [Example 4-30, 4-(aminomethyl)-6-(7-methylimidazo[1,2-a]pyridin-3-yl)phthalazin-1(2H)-one], the IC50 by setting is: under setting [1], 400 nM; under setting [2], 4750 nM.

Consider `NCc1n[nH]c(=O)c2ccc(-c3cncc(Oc4ccncc4)c3)cc12` [Example 7-1, 4-(aminomethyl)-6-(5-(pyridin-4-yloxy)pyridin-3-yl)phthalazin-1(2H)-one], for which the IC50 runs as follows: under setting [1], 490 nM; under setting [2], 11200 nM.

(Values after patent US11479551B2, “MTA-cooperative PRMT5 inhibitors” (Mirati Therapeutics, Inc., priority 2019, dated 2022).)
